This is an account of results in patent publication US11597724B2, “Herbicidally active 3-phenylisoxazoline-5-carboxamides of tetrahydro and dihydrofuran carboxylic acids and esters” (Bayer Aktiengesellschaft, priority 2017, dated 2023).

Common to all, as to format: in vivo
Experiment [1] has as its system Viola tricolor. Briefly: Post-emergence herbicidal activity against VIOTR. The note with it: dosage 320 g/ha, rated about 3 weeks after treatment; for pest or weed control at 320 g/ha: Viola tricolor, 504 h. In outline: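 Greenhouse plants in sandy loam treated at one-leaf stage, 2 to 3 weeks after sowing, by spraying WP or EC formulations with 0.5% additive at 600 l/ha water. Activity rated visually after about 3 weeks versus untreated controls, 100% = plants dead, 0% = like control.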

The subject of another experiment is Amaranthus retroflexus. As to the kind of experiment: Post-emergence herbicidal activity against AMARE. The note with it: dosage 320 g/ha, rated about 3 weeks after treatment; for pest or weed control at 320 g/ha: Amaranthus retroflexus, 504 h. An outline of the steps: (§1)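 Greenhouse pots of sandy loam; plants sprayed at one-leaf stage, 2 to 3 weeks after sowing, with WP or EC formulations in water plus 0.5% additive at 600 l/ha. Activity rated visually after about 3 weeks against untreated controls (100% = plants dead, 0% = like control).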

In experiment [2] the test system is Viola tricolor. Briefly: Pre-emergence herbicidal activity against VIOTR. The following applies: dosage 80 g/ha. An excerpt: (§2) 1. Pre-Emergence Herbicidal Action and Crop Plant Compatibility Seeds of monocotyledonous and dicotyledonous weed plants and crop plants are placed in plastic or wood fiber pots and covered with soil. The compounds of the invention, formulated in the form of wettable powders (WP) or as emulsion concentrates (EC), are then applied onto the surface of the covering soil as aqueous suspension or emulsion with addition of 0.5% additive at a water application rate of 600 l/ha (converted). After the treatment, the pots are placed in a greenhouse and kept under good growth conditions for the trial plants. After about 3 weeks, the effect of the preparations is scored visually in comparison with untreated controls as percentages. For example, 100% activity=the plants have died, 0% activity=like control plants. VIOTR: Viola tricolor

The test system of a further experiment is Polygonum convolvulus. Briefly: Pre-emergence herbicidal activity against POLCO. The following applies: Fallopia convolvulus, 504 h, dosage 80 g/ha.
From the text: as §2, with “POLCO: Polygonum convolvulus SETVI: Setaria viridis” for “VIOTR: Viola tricolor”

Experiment [3] is described as follows: Post-emergence treatment, summary over harmful plants. The note with it: 504 h, application rate of 0.32 kg of active substance or less per hectare, read-out: herbicidal action, post-emergence treatment (very good herbicidal activity). An outline of the steps:
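Greenhouse-grown weeds and crops were sprayed at the one-leaf stage (2–3 weeks post-sowing) with WP or EC formulations plus 0.5% additive at 600 l/ha water. About 3 weeks later, activity was visually rated against untreated controls (100% = dead plants, 0% = like control).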

The subject of another experiment is Avena fatua. As to the kind of experiment: Post-emergence herbicidal activity against AVEFA. The note with it: dosage 320 g/ha, rated about 3 weeks after treatment; for pest or weed control at 320 g/ha: Avena fatua, 504 h. In outline:
as §1

For the compound `C=C[C@]1(C(=O)N[C@H]2CO[C@@H](C(=O)OC(C)(C)C)C2)CC(c2cc(F)cc(F)c2)=NO1` (mixture of isomers) [I-38, tert-butyl cis-4-[[(5S)-3-(3,5-difluorophenyl)-5-vinyl-4H-isoxazole-5-carbonyl]amino]tetrahydrofuran-2-carboxylate], the pest or weed control at 320 g/ha is 80% with Viola tricolor [1], 100% in the experiment with Amaranthus retroflexus, 80 to 100% in experiment [3] and 90% in the experiment on Avena fatua. Also, the “Pre-emergence herbicidal activity against VIOTR in %” value with Viola tricolor [2] is listed as 100%. The compound also showed a pest or weed control at 80 g/ha with Polygonum convolvulus of 100%.
On to `C=C[C@]1(C(=O)N[C@H]2CO[C@@H](C(=O)OC)C2)CC(c2cc(F)cc(F)c2)=NO1` (mixture of isomers) [I-10, methyl cis-4-[[(5S)-3-(3,5-difluorophenyl)-5-vinyl-4H-isoxazole-5-carbonyl]amino]tetrahydrofuran-2-carboxylate], for which the pest or weed control at 320 g/ha is 80% with Viola tricolor [1], 80% with Amaranthus retroflexus, 80 to 100% in experiment [3] and 100% in the experiment on Avena fatua. In addition, in the experiment on Viola tricolor [2], the “Pre-emergence herbicidal activity against VIOTR in %” value was determined as 100%. In addition, in the experiment with Polygonum convolvulus, the pest or weed control at 80 g/ha is 100%.
For `C=C[C@]1(C(=O)N[C@H]2CO[C@@H](C(=O)OCC)C2)CC(c2cc(F)cc(F)c2)=NO1` (mixture of isomers) [I-35, ethyl cis-4-[[(5S)-3-(3,5-difluorophenyl)-5-vinyl-4H-isoxazole-5-carbonyl]amino]tetrahydrofuran-2-carboxylate], the pest or weed control at 320 g/ha was 80% in the experiment on Viola tricolor [1], 90% in the experiment on Amaranthus retroflexus, 80 to 100% in experiment [3] and 100% in the experiment with Avena fatua. Moreover, the “Pre-emergence herbicidal activity against VIOTR in %” value in the experiment with Viola tricolor [2] turned out to be 100%. In addition, in the experiment on Polygonum convolvulus, the pest or weed control at 80 g/ha is 100%.
For the compound `C=C[C@]1(C(=O)N[C@H]2CO[C@@H](C(=O)OCc3ccccc3)C2)CC(c2cc(F)cc(F)c2)=NO1` (mixture of isomers) [I-37, benzyl cis-4-[[(5S)-3-(3,5-difluorophenyl)-5-vinyl-4H-isoxazole-5-carbonyl]amino]tetrahydrofuran-2-carboxylate], the pest or weed control at 320 g/ha is 80% with Viola tricolor [1], 80% with Amaranthus retroflexus, 80 to 100% in experiment [3] and 100% in the experiment on Avena fatua. Also, the “Pre-emergence herbicidal activity against VIOTR in %” value in the experiment with Viola tricolor [2] worked out at 100%. Moreover, the pest or weed control at 80 g/ha with Polygonum convolvulus was found to be 100%.
With `C=C[C@]1(C(=O)N[C@H]2CO[C@@H](C(=O)OC)C2)CC(c2cc(F)cc(F)c2)=NO1` (single isomer, unassigned) [I-12], the “Post-emergence herbicidal activity against VIOTR in %” value in the experiment with Viola tricolor [1] is listed as 100%. Further, the “Post-emergence herbicidal activity against AMARE in %” value with Amaranthus retroflexus amounted to 90%. For the same compound, in the experiment on Viola tricolor [2], the “Pre-emergence herbicidal activity against VIOTR in %” value was 100%. Besides, the pest or weed control at 80 g/ha in the experiment with Polygonum convolvulus worked out at 100%. In addition, the pest or weed control at 320 g/ha in experiment [3] fell in the range of 80 to 100%. The “Post-emergence herbicidal activity against AVEFA in %” value with Avena fatua worked out at 100%.
`COC(=O)[C@H]1C[C@@H](NC(=O)C2(C(F)(F)F)CC(c3cc(F)cc(F)c3)=NO2)CO1` (relative stereo) [I-06, methyl cis-4-[[3-(3,5-difluorophenyl)-5-(trifluoromethyl)-4H-isoxazole-5-carbonyl]amino]tetrahydrofuran-2-carboxylate]: the pest or weed control at 320 g/ha is 90% with Viola tricolor [1], 80% in the experiment with Amaranthus retroflexus, 80 to 100% in experiment [3] and 90% in the experiment with Avena fatua. Besides, in the experiment with Viola tricolor [2], the “Pre-emergence herbicidal activity against VIOTR in %” value is given as 80%. Also, the pest or weed control at 80 g/ha in the experiment on Polygonum convolvulus is 100%.
